The record followed here is the OPERA property sets (Mansouri et al. 2018).

Broadly, the solubility is the dissolved amount per volume that the medium holds. Read a high solubility as much dissolved substance.

≈ marks a conversion by molar mass, not a printed value.

For the first data set the following is noted: 25 °C.
`Cc1cc(=O)[nH]c(=S)[nH]1` displayed a solubility of 3.75 mM (≈ 533 µg/mL).

Compound `Cc1c2ccccc2c(C)c2ccccc12` gave a solubility of 0.000271 mM (≈ 0.056 µg/mL).

`ClC1=C(Cl)[C@]2(Cl)[C@H]3[C@H]([C@@H]4C=C[C@H]3C4)[C@@]1(Cl)C2(Cl)Cl` (racemic) had a solubility of 4.66e-05 mM (≈ 0.017 µg/mL).

The compound `CCn1cc(C(=O)O)c(=O)c2cnc(N3CCNCC3)nc21` yielded a solubility of 1.06 mM (≈ 322 µg/mL).

`C(=C\c1ccccc1)/CN1CCN(C(c2ccccc2)c2ccccc2)CC1` registered a solubility of 2.04 mM (≈ 750 µg/mL).

In turn, `CNC(=O)ON=C(C)SC` registered a solubility of 358 mM (≈ 58000 µg/mL). Against the preceding compound, the solubility is about 180-fold higher.

Compound `CCCC(=O)CC` registered a solubility of 147 mM (≈ 14700 µg/mL).

In turn, `COC1=CC(=O)C[C@@H](C)[C@]12Oc1c(Cl)c(OC)cc(OC)c1C2=O` yielded a solubility of 0.0245 mM (≈ 8.64 µg/mL).

In turn, `Clc1cc(Cl)c2c(c1Cl)Oc1ccccc1O2` yielded a solubility of 2.92e-05 mM (≈ 0.00841 µg/mL).

`C(=C\c1ccccc1)/c1ccccc1` displayed a solubility of 0.00161 mM (≈ 0.291 µg/mL).

As for `CCOc1ccccc1`, the solubility stood at 4.66 mM (≈ 569 µg/mL).

In turn, `CC[C@H](O)C(C)C` returned a solubility of 197 mM (≈ 20100 µg/mL).

In turn, `Cc1nc(N(C)C)nc(OC(=O)N(C)C)c1C` displayed a solubility of 11.3 mM (≈ 2700 µg/mL). This solubility lies about 17-fold lower than the previous one.

As for `O=C(O)c1ccnc(C(=O)O)c1`, the solubility stood at 14.9 mM (≈ 2490 µg/mL).

`Clc1ccc(-c2c(Cl)cc(Cl)cc2Cl)cc1`: the solubility stood at 0.000312 mM (≈ 0.0911 µg/mL).

For `COc1cc(C=O)ccc1O`, the solubility came out at 72.3 mM (≈ 11000 µg/mL).

`Brc1ccc(Br)cc1`: the solubility was 0.0848 mM (≈ 20 µg/mL).

In the case of `CCC(C)c1ccccc1` (stereo not given), the solubility was found to be 0.131 mM (≈ 17.6 µg/mL).

`O=C(O)C(=O)Nc1ccccc1` registered a solubility of 49.9 mM (≈ 8240 µg/mL).

In turn, `ClCBr` came in with a solubility of 129 mM (≈ 16700 µg/mL).

For `CCCCP(=O)(CCCC)CCCC`, the solubility was 255 mM (≈ 55700 µg/mL).

`CC(C)(C)CO`: the solubility came to 397 mM (≈ 35000 µg/mL).

In turn, `Cc1ccc2ccccc2c1` yielded a solubility of 0.173 mM (≈ 24.6 µg/mL).

With `Clc1cccc(Cl)c1-c1c(Cl)cccc1Cl`, the solubility turned out to be 4.08e-05 mM (≈ 0.0119 µg/mL).

As for `S=C=NCc1ccccc1`, the solubility was found to be 0.73 mM (≈ 109 µg/mL).

Take `CC(=O)C(C)(C)C`: the solubility came out at 190 mM (≈ 19000 µg/mL). Compared with the last compound, the solubility is about 260-fold higher.

`Fc1cccc(Br)c1` gave a solubility of 2.16 mM (≈ 378 µg/mL).

As for `Cc1ccc2cc3ccccc3cc2c1`, the solubility was found to be 0.000111 mM (≈ 0.0213 µg/mL).

Consider `CC(Oc1ccc(Cl)cc1)C(=O)O` (stereo not given), for which the solubility worked out at 7.33 mM (≈ 1470 µg/mL).

In turn, `O=C1NC(=O)c2ccccc21` yielded a solubility of 2.45 mM (≈ 360 µg/mL).

Compound `Clc1ccc(-c2cc(Cl)ccc2Cl)cc1` came in with a solubility of 0.000555 mM (≈ 0.143 µg/mL).

Turning to `Cc1cnc2c(ccc3c(C)c(C)cnc32)c1C`, the solubility was 0.00639 mM (≈ 1.51 µg/mL).

`CC(C)CCOC(=O)c1ccccc1O` came in with a solubility of 0.696 mM (≈ 145 µg/mL).

On to `Cc1ccc(C)nc1`, for which the solubility is 1530 mM (≈ 164000 µg/mL).

In turn, `c1ccc(CCc2ccccc2)cc1` displayed a solubility of 0.0236 mM (≈ 4.3 µg/mL).

Take `CNc1ccccc1`: the solubility was determined as 52.4 mM (≈ 5620 µg/mL).

`CCC(C)(C)c1ccccc1` displayed a solubility of 0.0708 mM (≈ 10.5 µg/mL).

As to `CCOC(=S)SSC(=S)OCC`, the solubility is 0.0114 mM (≈ 2.76 µg/mL).

The compound `CC(=O)C(C)C` registered a solubility of 706 mM (≈ 60800 µg/mL). This solubility is about 62000-fold higher than that of the compound before.

Turning to `CCCCCCOC(C)=O`, the solubility stood at 3.54 mM (≈ 511 µg/mL). Compared with the last compound, the solubility is about 200-fold lower.

Take `O=C1C(Cl)=C(Cl)C(=O)C(Cl)=C1Cl`: the solubility was 1.02 mM (≈ 250 µg/mL). Compared with the last compound, the solubility is about 3.5-fold lower.

The compound `CCCC(=O)OC` showed a solubility of 147 mM (≈ 15000 µg/mL).

In the case of `O=C(O)c1cc(Cl)ccc1[N+](=O)[O-]`, the solubility was determined as 48 mM (≈ 9670 µg/mL).

Regarding `CC(=O)O[C@]1(C(C)=O)CC[C@H]2[C@@H]3C=C(Cl)C4=CC(=O)C=C[C@]4(C)[C@H]3CC[C@@]21C`, the solubility came out at 0.0113 mM (≈ 4.57 µg/mL).

`Cc1ccc(-c2ccccc2)cc1`: the solubility worked out at 0.0241 mM (≈ 4.05 µg/mL).

In turn, `O=C(O)c1cccnc1Nc1cccc(C(F)(F)F)c1` displayed a solubility of 0.0673 mM (≈ 19 µg/mL).

For `Cc1cc(=O)[nH]o1`, the solubility came out at 858 mM (≈ 85000 µg/mL).

The compound `C=CCN(CC=C)C(=O)CCl` gave a solubility of 113 mM (≈ 19700 µg/mL).

In turn, `Clc1ccc(Cl)c(-c2cc(Cl)c(Cl)cc2Cl)c1` had a solubility of 4.72e-05 mM (≈ 0.0154 µg/mL). That is a double-digit nanomolar value.

`Cc1ccc(S(N)(=O)=O)cc1` had a solubility of 18.4 mM (≈ 3160 µg/mL).

In turn, `CCC#CC(C)C` registered a solubility of 1.8 mM (≈ 173 µg/mL).

Regarding `Clc1ccc2c(c1)Oc1cc(Cl)ccc1O2`, the solubility amounted to 6.6e-05 mM (≈ 0.0167 µg/mL). Compared with the last compound, the solubility is about 27000-fold lower.

In the case of `Ic1cccc2ccccc12`, the solubility was determined as 0.0282 mM (≈ 7.16 µg/mL).

As to `COc1ccc(C=O)cc1`, the solubility worked out at 31.5 mM (≈ 4290 µg/mL).

As to `CCCCC(C)C`, the solubility stood at 0.0253 mM (≈ 2.54 µg/mL).

Staying with this data set, now noted: 27 °C.
As to `CC(=O)[C@@]1(O)CC[C@H]2[C@@H]3CCC4=CC(=O)CC[C@]4(C)[C@H]3CC[C@@]21C`, the solubility was found to be 0.0196 mM (≈ 6.48 µg/mL). This lies in the double-digit micromolar range.

`C#C[C@]1(O)CC[C@H]2[C@@H]3CCc4cc(O)ccc4[C@H]3CC[C@@]21C`: the solubility turned out to be 0.0381 mM (≈ 11.3 µg/mL).

`Cc1c(C)c2c3ccccc3ccc2c2ccccc12` gave a solubility of 9.75e-05 mM (≈ 0.025 µg/mL).

The same data set, now with this note: 28 °C.
With `COc1ccc(C[C@H]2NC[C@H](O)[C@H]2OC(C)=O)cc1`, the solubility turned out to be 24.7 mM (≈ 6550 µg/mL).

The data set is the same for the next values; noted with them: 30 °C.
In turn, `NCCCCCCCCCCC(=O)O` registered a solubility of 4.97 mM (≈ 1000 µg/mL).

`COP1(=S)OCc2ccccc2O1` (stereo not given): the solubility is 0.268 mM (≈ 58 µg/mL).

For `O=C(O)CCCCCCCCCCBr`, the solubility is 0.2 mM (≈ 53 µg/mL).

`ClC(Cl)Br` registered a solubility of 18.5 mM (≈ 3030 µg/mL). This solubility is about 92-fold higher than that of the compound before.

`CN1c2ccccc2Sc2ccc(CC(=O)O)cc21` yielded a solubility of 0.114 mM (≈ 31 µg/mL).

Turning to `COc1c2occc2cc2ccc(=O)oc12`, the solubility is 0.22 mM (≈ 47.6 µg/mL).
